The assay has as its target T1, human CB1 receptor (Homo sapiens, UniProt P21554).
T1 construct: expressed in transfected cells; membrane-enriched fractions
Put plainly: competitive radioligand binding assay, displacement of [3H]CP55,940, CB1. Particulars: for IC50: displacement of specific [3H]-CP55940 binding in HEK 293 cells stably transfected with human CB1 receptor. Here is the method:
In addition, the affinity of test compounds of this invention toward CB1 and CB2 receptors was determined by competitive radioligand binding assays in vitro. This method differentiates the binding strength between compounds by their abilities in displacing a receptor-specific radioactive ligand. […] The readings of the radioactivity retained allow further analysis of receptor binding, and assist in predictions of the pharmacological activities of the test compounds.
In the assays, CB1 receptors are from human CB1 stably expressed cell lines, and CB2 receptors are from human CB2 stably expressed cell lines. For purification of membrane-enriched fractions, cells were scraped off from the culture dishes in ice-cold buffer A (50 mM Tris, 5 mM MgCl2, 2.5 mM EDTA, pH 7.4, 10% sucrose) with 1 mM PMSF. After sonication, the membrane-enriched fractions were centrifuged for 15 minutes at 2,000×g at 4° C. The supernatant was centrifuged again for 30 minutes at 43,000×g at 4° C. The final pellet was re-suspended in buffer A and stored at −80° C. The protein concentration of the purified membrane was determined by the Bradford method as described by the manual provided by Bio-Rad Laboratories, Inc., Hercules, Calif.
During the receptor binding experiments, 0.2˜8 μg of membrane fractions were incubated with 0.75 nM [^3H]CP55,940 and a test compound in the incubation buffer of 50 mM Tris-HCl, 5 mM MgCl2, 1 mM EDTA, 0.3% BSA, pH 7.4. The non-specific binding was determined by using 1 μM of CP55,940. The mixture was incubated for 1.5 hours at 30° C. in Multiscreen microplates (Millipore, Billerica, Mass.). At the completion of the incubation, the reaction was terminated by Manifold filtration and washed with ice-cold wash buffer (50 mM Tris, pH 7.4, 0.25% BSA) four times. The radioactivity bound to the filters was measured by Topcount (Perkin Elmer Inc.).

Setting [1] is: Table 2, percent inhibition at 10 μM.
Where [2] appears, read: Table 1, percent inhibition at 10 μM.

This is an account of results in patent US8293773B2, “1, 2, 3-triazole derivatives as new cannabinoid-1 receptor antagonists” (National Tsing Hua University, priority 2008, dated 2012).

The inhibition is the share of the control response that was lost under treatment. Lower therefore signals little suppression. For orientation: IC50 means the concentration needed to halve the response being measured. A high value points to lower potency.

T1 sequence (P21554 whole entry): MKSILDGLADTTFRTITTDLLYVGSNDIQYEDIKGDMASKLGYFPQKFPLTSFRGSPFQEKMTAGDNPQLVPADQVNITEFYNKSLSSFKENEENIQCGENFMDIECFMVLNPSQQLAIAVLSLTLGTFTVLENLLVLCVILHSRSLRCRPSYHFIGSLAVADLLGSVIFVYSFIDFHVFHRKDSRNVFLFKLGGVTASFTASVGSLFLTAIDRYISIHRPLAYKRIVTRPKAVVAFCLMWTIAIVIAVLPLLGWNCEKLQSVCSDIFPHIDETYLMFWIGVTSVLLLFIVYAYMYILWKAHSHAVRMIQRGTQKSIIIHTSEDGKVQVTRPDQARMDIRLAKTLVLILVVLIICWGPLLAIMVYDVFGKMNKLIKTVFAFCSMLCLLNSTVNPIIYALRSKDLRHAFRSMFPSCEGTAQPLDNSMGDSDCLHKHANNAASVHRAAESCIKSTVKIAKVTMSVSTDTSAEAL

For `COc1ccc(CNC(=O)Cn2nc(-c3ccc(Cl)cc3)c(-c3ccc(Cl)cc3Cl)n2)cc1OC` [Compound 164], the IC50 was 2830 ± 378 nM. Besides, the inhibition at 10 µM under setting [1] turned out to be 82.1%.
`CCN(CC)C(=O)Cn1nnc(-c2ccccc2)c1-c1ccccc1` [Compound 2]: 10 µM produced 22.6% inhibition under setting [2].
As to `C=CCNC(=O)Cn1nnc(-c2ccccc2)c1-c1ccccc1` [Compound 7], 10 µM produced 15.4% inhibition under setting [2].
In turn, `CCCCOC(=O)Cn1nnc(-c2ccc(Cl)cc2)c1-c1ccc(Cl)cc1` [Compound 14] yielded an inhibition at 10 µM under setting [2] of 64.1%.
On the same count and under the same terms, the result for `CCCCCNC(=O)NNC(=O)Cn1nnc(-c2ccc(Cl)cc2)c1-c1ccc(Cl)cc1` [Compound 51] reads 18.6%; that for `CCCCOC(=O)CCn1nnc(-c2ccccc2)c1-c1ccccc1` [Compound 24], 31.6%.
`O=C(Cn1nc(-c2ccc(Cl)cc2)c(-c2ccc(Cl)cc2Cl)n1)NCc1ccccc1C(F)(F)F` [Compound 158] displayed an IC50 of 302 ± 132 nM. Testing at 10 µM under setting [1] gave an inhibition of 92.5%.
On the same counts, the results for `O=C(Cn1nc(-c2ccc(Cl)cc2)c(-c2ccc(Cl)cc2Cl)n1)NCc1ccccc1Cl` [Compound 159] are 365 ± 160 nM and 87.3%.
Take `CCCCCNC(=O)n1nc(-c2ccc(Cl)cc2Cl)c(-c2ccc(Cl)cc2Cl)n1` [Compound 88]: under setting [1], the inhibition at 10 µM stood at 7%.
Consider `CCCCCCOC(=O)Cn1nnc(-c2ccc(Cl)cc2Cl)c1-c1ccc(Cl)cc1Cl` [Compound 57], for which the inhibition at 10 µM under setting [2] was 55.7%.
Compound `CCCCOC(=O)Cn1nnc(-c2ccccc2)c1-c1ccc(C#N)cc1` [Compound 31] gave an inhibition at 10 µM under setting [2] of 18.9%.
`O=C(Cn1nc(-c2ccc(Cl)cc2Cl)c(-c2ccc(Cl)cc2Cl)n1)N1CCOCC1` [Compound 131] came in with an IC50 of 71.9 ± 16.5 nM. Besides, the inhibition at 10 µM under setting [1] amounted to 84.2%.
Consider `CCCCCCCCNC(=O)n1nc(-c2ccc(Cl)cc2Cl)c(-c2ccc(Cl)cc2Cl)n1` [Compound 98], for which the “CB1 Inhibition (%) (10 μM)” value (Table 2, percent inhibition at 10 μM, 10 µM) was 19.40%.
`CCCCCCNC(=O)n1nc(-c2ccc(Cl)cc2)c(-c2ccc(Cl)cc2Cl)n1` [Compound 94] yielded an inhibition at 10 µM under setting [1] of 10.9%.
Turning to `Cc1cccc(CNC(=O)Cn2nc(-c3ccc(Cl)cc3)c(-c3ccc(Cl)cc3Cl)n2)c1` [Compound 155], the 50% inhibitory concentration (IC50) stood at 473 ± 300 nM. In addition, under setting [1], the inhibition at 10 µM was 85%.
The compound `CCCCCCCNC(=O)n1nc(-c2ccc(Cl)cc2)c(-c2ccc(Cl)cc2)n1` [Compound 87] displayed an inhibition at 10 µM under setting [1] of 12.9%.
With `CCCCCCCC(=O)n1nc(-c2ccc(Cl)cc2)c(-c2ccc(Cl)cc2)n1` [Compound 84], the inhibition at 10 µM under setting [1] is 21.2%.
`CCCCCCCCNC(=O)NNC(=O)Cn1nnc(-c2ccc(Cl)cc2)c1-c1ccc(Cl)cc1` [Compound 49] yielded an inhibition at 10 µM under setting [2] of 30.3%.
Turning to `O=C(Cn1nc(-c2ccc(Cl)cc2)c(-c2ccc(Cl)cc2Cl)n1)N1CCCCC1` [Compound 129], the IC50 came to 587 ± 139 nM. Under setting [1], this compound had an inhibition at 10 µM of 76.5%.
`CC(C)(C)OC(=O)NNC(=O)Cn1nnc(-c2ccccc2)c1-c1ccccc1` [Compound 44] registered an inhibition at 10 µM under setting [2] of 14.1%.
On the same count and under the same terms, the figure for `O=C(CCn1nnc(-c2ccccc2)c1-c1ccccc1)N1CCCCC1` [Compound 43] is 34.4%.
Under setting [1], `O=C(c1ccccc1Cl)n1nc(-c2ccccc2)c(-c2ccccc2)n1` [Compound 67] showed an inhibition at 10 µM of 13.1%.
`CCCCOC(=O)Cn1nnc(-c2ccc(Cl)cc2Cl)c1-c1ccc(Cl)cc1Cl` [Compound 54]: 10 µM produced 71.7% inhibition under setting [2].
On to `CCCCCCCOC(=O)Cn1nc(-c2ccc(Cl)cc2Cl)c(-c2ccc(Cl)cc2Cl)n1` [Compound 117], for which, under setting [1], at 10 µM the inhibition was 47.5%.
Take `CCCCCOC(=O)Cn1nnc(-c2ccc(Cl)cc2Cl)c1-c1ccc(Cl)cc1Cl` [Compound 58]: the inhibition at 10 µM under setting [2] was found to be 58.3%.
`O=C(Cn1nc(-c2ccc(Cl)cc2Cl)c(-c2ccc(Cl)cc2Cl)n1)N[C@H](CO)Cc1ccccc1` [Compound 132] displayed an IC50 of 295 ± 112 nM. This compound yielded an inhibition at 10 µM under setting [1] of 88.2%.
`O=C(Cn1nnc(-c2cccc(F)c2)c1-c1cccc(F)c1)N1CCCCC1` [Compound 18] registered an inhibition at 10 µM under setting [2] of 19.7%.
The same measure, in the same setting: the result for `CCCCOC(=O)Cn1nnc(-c2ccccc2)c1-c1ccc(C(F)(F)F)cc1` [Compound 40] reads 16.3%; that for `CCCCOC(=O)Cn1nnc(-c2cccc(F)c2)c1-c1cccc(F)c1` [Compound 22], 27.1%.
`O=C(c1ccccc1)n1nc(-c2ccccc2)c(-c2ccccc2)n1` [Compound 65]: testing at 10 µM under setting [1] gave an inhibition of 11.4%.
The same measure, in the same setting: the figure for `CCCCCCNC(=O)n1nc(-c2ccc(Cl)cc2)c(-c2ccc(Cl)cc2)n1` [Compound 81] is 41.5%.
Consider `CCCCOC(=O)Cn1nnc(-c2ccc(Br)cc2)c1-c1ccc(Br)cc1` [Compound 53], for which the inhibition at 10 µM under setting [2] was determined as 68.7%.
`CC(NC(=O)Cn1nc(-c2ccc(Cl)cc2)c(-c2ccc(Cl)cc2Cl)n1)c1ccccc1` (stereo not shown) [Compound 154] came in with an IC50 of 772 ± 446 nM. The compound also displayed an inhibition at 10 µM under setting [1] of 95.2%.
`O=C(NC12CC3CC(CC(C3)C1)C2)n1nc(-c2ccc(Cl)cc2)c(-c2ccc(Cl)cc2)n1` [Compound 107] gave an inhibition at 10 µM under setting [1] of 19.7%.
In turn, `CC(C)[C@H](NC(=O)Cn1nc(-c2ccc(Cl)cc2)c(-c2ccc(Cl)cc2Cl)n1)C(O)(c1ccccc1)c1ccccc1` [Compound 144] had a 50% inhibitory concentration (IC50) of 140 ± 63.1 nM. Besides, testing at 10 µM under setting [1] gave an inhibition of 89.5%.
Take `O=C(Cn1nc(-c2ccc(Cl)cc2Cl)c(-c2ccc(Cl)cc2Cl)n1)Oc1ccccc1` [Compound 124]: under setting [1], the inhibition at 10 µM was determined as 14.3%.
Still for that read-out and setting: the figure for `O=C(NCc1ccccc1)n1nc(-c2ccc(Cl)cc2)c(-c2ccc(Cl)cc2Cl)n1` [Compound 105] is 18.6%; for `CSc1ccc([C@@H](O)[C@@H](CO)NC(=O)Cn2nc(-c3ccc(Cl)cc3Cl)c(-c3ccc(Cl)cc3Cl)n2)cc1` [Compound 136] it is 66.3%; for `CC(C)(C)C(=O)n1nc(-c2ccccc2)c(-c2ccccc2)n1` [Compound 66] it is 32.1%.
Under setting [1], `CCCCCCOC(=O)Cn1nc(-c2ccc(Cl)cc2)c(-c2ccc(Cl)cc2Cl)n1` [Compound 114] returned an inhibition at 10 µM of 39.1%.
In the case of `CCCOC(=O)Cn1nnc(-c2ccc(Cl)cc2)c1-c1ccc(Cl)cc1` [Compound 32], the inhibition at 10 µM under setting [2] amounted to 28.3%.
In turn, `C[C@H](NC(=O)Cn1nc(-c2ccc(Cl)cc2Cl)c(-c2ccc(Cl)cc2Cl)n1)C(O)(c1ccccc1)c1ccccc1` [Compound 133] registered an IC50 of 760 ± 273 nM. This compound also came in with an inhibition at 10 µM under setting [1] of 75.7%.
Compound `CNC(=O)Cn1nnc(-c2ccccc2)c1-c1ccccc1` [Compound 9] gave an inhibition at 10 µM under setting [2] of 21.1%.
Under setting [2], `CCCCCCCOC(=O)Cn1nnc(-c2ccc(Cl)cc2)c1-c1ccc(Cl)cc1` [Compound 25] registered an inhibition at 10 µM of 53.6%.
In turn, `CCCCOC(=O)Cn1nnc(-c2ccccc2)c1-c1ccccc1` [Compound 1] came in with an inhibition at 10 µM under setting [2] of 40.8%.
As for `CCCCCOC(=O)Cn1nc(-c2ccc(Cl)cc2Cl)c(-c2ccc(Cl)cc2Cl)n1` [Compound 116], the IC50 came out at 2800 ± 544 nM. For the same compound, the inhibition at 10 µM under setting [1] turned out to be 76.5%.
Under setting [1], `O=C(NC12CC3CC(CC(C3)C1)C2)n1nc(-c2ccc(Cl)cc2)c(-c2ccc(Cl)cc2Cl)n1` [Compound 108] gave an inhibition at 10 µM of 34.5%.
The compound `O=C(Cn1nc(-c2ccc(Cl)cc2)c(-c2ccc(Cl)cc2Cl)n1)NCc1ccc(Cl)c(Cl)c1` [Compound 153] had an IC50 of 1060 ± 656 nM. For the same compound, under setting [1], the inhibition at 10 µM was determined as 87%.
Compound `CCCCCCCNC(=O)NNC(=O)Cn1nnc(-c2ccc(Cl)cc2)c1-c1ccc(Cl)cc1` [Compound 50] showed an inhibition at 10 µM under setting [2] of 27.5%.
Regarding `O=C(NC12CC3CC(CC(C3)C1)C2)n1nc(-c2ccccc2)c(-c2ccccc2)n1` [Compound 106], under setting [1], testing at 10 µM gave an inhibition of 4.8%.
Take `Cc1cc(C)cc(NC(=O)n2nc(-c3ccc(Cl)cc3)c(-c3ccc(Cl)cc3)n2)c1` [Compound 71]: the inhibition at 10 µM under setting [1] was found to be 3.6%.
Take `O=C(Cn1nnc(-c2ccc(Cl)c(Cl)c2)c1-c1ccc(Cl)c(Cl)c1)N1CCCCC1` [Compound 10]: testing at 10 µM under setting [2] gave an inhibition of 20.3%.
`CCCCOC(=O)Cn1nnc(-c2ccc(Cl)cc2)c1-c1ccc(Cl)cc1Cl` [Compound 46]: testing at 10 µM under setting [2] gave an inhibition of 50.8%.
Still for that read-out and setting: the figure for `CCCCOC(=O)Cn1cc(-c2ccccc2)nn1` [Compound 4] is 9.6%.
Regarding `O=C(NC1CCCCC1)n1nc(-c2ccc(Cl)cc2)c(-c2ccc(Cl)cc2Cl)n1` [Compound 93], 10 µM produced 30.5% inhibition under setting [1].
Under setting [1], `CCCCCCCCNC(=O)n1nc(-c2ccc(Cl)cc2Cl)c(-c2ccc(Cl)cc2Cl)n1` [Compound 77] yielded an inhibition at 10 µM of 27.5%.
Same read-out and setting: the figure for `CCCCOC(=O)CNC(=O)n1nc(-c2ccc(Cl)cc2)c(-c2ccc(Cl)cc2)n1` [Compound 109] is 58.1%.
On to `CCCCCOC(=O)Cn1nnc(-c2ccc(Cl)cc2)c1-c1ccc(Cl)cc1` [Compound 20], for which, under setting [2], the inhibition at 10 µM is 51.2%.
